# Results from patent publication US6953812B2, “Glucagon antagonists/inverse agonists” (Novo Nordisk, Inc., priority 2000, dated 2005).
# Experiments:
# human GIP receptor = target: T1, human GIP receptor (Homo sapiens, UniProt P48546); assay: GIP Binding Assay; details: membranes of BHK cells transfected with human GIP receptor, 125I-GIP, SPA; read-out: GIP Bd Assay IC50
# T1 construct: expressed in transfected cells; host or cells: BHK (baby hamster kidney) cells, membrane preparation
# T1 sequence (P48546 22-466): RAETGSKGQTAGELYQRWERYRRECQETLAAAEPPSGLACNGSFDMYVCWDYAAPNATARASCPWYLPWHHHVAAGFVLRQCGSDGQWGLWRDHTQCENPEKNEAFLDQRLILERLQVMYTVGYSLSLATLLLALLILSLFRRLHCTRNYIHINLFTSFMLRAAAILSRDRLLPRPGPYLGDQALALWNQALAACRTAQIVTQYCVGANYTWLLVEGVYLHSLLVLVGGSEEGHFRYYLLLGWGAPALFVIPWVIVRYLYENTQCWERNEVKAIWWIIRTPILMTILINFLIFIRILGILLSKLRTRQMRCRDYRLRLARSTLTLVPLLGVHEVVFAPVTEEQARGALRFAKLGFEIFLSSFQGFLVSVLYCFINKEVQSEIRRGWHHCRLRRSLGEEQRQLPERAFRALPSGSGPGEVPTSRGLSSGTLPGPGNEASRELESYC
# Experimental: BHK (baby hamster kidney cell line) cells are transfected with the human GIP receptor and a membrane preparation of the cells is prepared.
# (§1) All steps in the membrane preparation are kept on ice or performed at 4° C. BHK cells are harvested and centrifuged. The pellet is resuspended in homogenisation buffer (25 mM) HEPES, pH=7.4, 2.5 mM CaCl2, 1.0 mM MgCl2, 250 mg/L bacitracin, 0.1 mM Pefabloc), homogenised 2×10 sec using Polytron 10-35 homogenizer (Kinematica) and added the same amount of homogenisation buffer as used for resuspension. After centrifugation (15 min at 2000×g) the supernatant is transferred to cold centrifuge tubes and centrifuged for 45 min at 40.000×g. The pellet is resuspended in homogenisation buffer, homogenised 2×10 sec (Polytron) and additional homogenisation buffer is added. The suspension is centrifuged for 45 min at 40.000×g and the pellet is resuspended in resuspension buffer (25 mM HEPES, pH=7.4, 2.5 mM CaCl2, 1.0 mM MgCl2) and homogenised 2×10 sec. (Polytron). […] Stabilisation buffer (25 mM HEPES, pH=7.4, 2.5 mM CaCl2, 1.0 mM MgCl2, 1% bovine serum albumin, 500 mg/L bacitracin, 2.5 M sucrose) is added and the membrane preparation is stored at −80° C.
# (§2) The GIP binding assay is carried out in opti plates (Polystyrene Microplates, Packard). 50 μL assay buffer (25 mM HEPES, pH=7.5, 2.5 mM CaCl2, 1.0 mM MgCl2, 0.003% Tween-20, 0.005% bacitracin, 0.05% sodium azide) and 5 μL GIP or test compound (in DMSO) are added to each well. […] Finally 50 μL WGA beads containing 1 mg beads are transferred to the well. The opti plates are incubated for 3.5 hours on a shaker and then settled for 8-48 hours. The opti plates are counted in a Top-counter. Non-specific binding is determined with 500 nM of GIP.
# human glucagon receptor = target: T2, human glucagon receptor (Homo sapiens, UniProt P47871); assay: Glucagon Binding Assay (II); details: membranes of BHK cells transfected with human glucagon receptor, 125I-glucagon, SPA; read-out: Glu Bd Assay (II) IC50
# T2 construct: expressed in transfected cells; host or cells: BHK (baby hamster kidney) cells, membrane preparation
# T2 sequence (P47871 26-477): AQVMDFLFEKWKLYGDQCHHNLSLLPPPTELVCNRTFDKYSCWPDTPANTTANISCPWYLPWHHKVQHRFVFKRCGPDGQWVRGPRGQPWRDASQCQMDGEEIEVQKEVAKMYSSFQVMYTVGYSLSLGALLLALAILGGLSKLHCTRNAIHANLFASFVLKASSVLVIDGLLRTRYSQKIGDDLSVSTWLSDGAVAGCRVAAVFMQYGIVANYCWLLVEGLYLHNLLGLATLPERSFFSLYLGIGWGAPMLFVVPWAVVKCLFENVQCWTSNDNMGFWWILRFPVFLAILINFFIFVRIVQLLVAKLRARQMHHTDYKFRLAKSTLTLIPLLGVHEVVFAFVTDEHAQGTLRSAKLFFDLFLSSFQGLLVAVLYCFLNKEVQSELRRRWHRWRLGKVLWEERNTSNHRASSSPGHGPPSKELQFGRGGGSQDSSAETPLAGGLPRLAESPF
# Experimental: Glucagon Binding Assay (II)
# BHK (baby hamster kidney cell line) cells are transfected with the human glucagon receptor and a membrane preparation of the cells is prepared.
# as §1, with “mM” for “mM)”
# as §2, with “glucagon” for “GIP”, “4” for “3.5”, “Topcounter.” for “Top-counter.”, “glucagon.” for “GIP.”
IC50 (human GIP receptor),IC50 (human glucagon receptor),Structure (SMILES)
916 nM,15 nM,"O=C(NC[C@@H](O)C(=O)O)c1ccc(CN(C(=O)Nc2cc(Cl)cc(Cl)c2)c2ccc(C3=CCCCC3)cc2)cc1 [Example 19, (R)-3-{4-[1-(4-Cyclohex-1-enylphenyl)-3-(3,5-dichlorophenyl)ureidomethyl]benzoylamino}-2-hydroxypropionic acid]"
693 nM,52 nM,"O=C(NC[C@@H](O)C(=O)O)c1ccc(CN(C(=O)Nc2cccc(Cl)c2)c2ccc(C3=CCCCC3)cc2)cc1 [Example 20, (R)-3-{4-[3-(3-Chlorophenyl)-1-(4-cyclohex-1-enylphenyl)ureidomethyl]benzoylamino}-2-hydroxypropionic acid]"
1260 nM,293 nM,"O=C(NC[C@@H](O)C(=O)O)c1ccc(CN(C(=O)Nc2ccccc2)c2ccc(C3=CCCCC3)cc2)cc1 [Example 21, (R)-3-{4-[1-(4-Cyclohex-1-enylphenyl)-3-phenylureidomethyl]benzoylamino}-2-hydroxypropionic acid]"
2270 nM,354 nM,"O=C(NC[C@@H](O)C(=O)O)c1ccc(CN(C(=O)NCc2ccccc2)c2ccc(C3=CCCCC3)cc2)cc1 [Example 22, (R)-3-{4-[3-Benzyl-1-(4-cyclohex-1-enylphenyl)ureidomethyl]benzoylamino}-2-hydroxypropionic acid]"
37 nM,4.4 nM,"O=C(NC[C@@H](O)C(=O)O)c1ccc(CN(C(=O)Nc2ccc(SC(F)(F)F)cc2)c2ccc(C3CCCCC3)cc2)cc1 [Example 24, (R)-3-{4-[1-(4-Cyclohexylphenyl)-3-(4-trifluoromethylsulfanylphenyl)ureidomethyl]benzoylamino}-2-hydroxypropionic acid]"
465 nM,10 nM,"CS(=O)(=O)c1cc(NC(=O)N(Cc2ccc(C(=O)NC[C@@H](O)C(=O)O)cc2)c2ccc(C3=CCCCC3)cc2)ccc1OC(F)(F)F [Example 25, (R)-3-{4-[1-(4-Cyclohexen-1-ylphenyl)-3-(3-methanesulfonyl-4-trifluoromethoxyphenyl)ureidomethyl]benzoylamino}-2-hydroxypropionic acid]"
703 nM,92 nM,"Cc1cc(C)cc(NC(=O)N(Cc2ccc(C(=O)NC[C@@H](O)C(=O)O)cc2)[C@H]2CC[C@H](C(C)(C)C)CC2)c1 [Example 26, Trans-(R)-3-{4-[-3-(3,5-bis(methyl)phenyl)-1-(4-tert-butylcyclohexyl)ureidomethyl]benzoylamino}-2-hydroxypropionic Acid]"
258 nM,9.7 nM,"O=C(NC[C@@H](O)C(=O)O)c1ccc(CN(C(=O)Nc2cc(Cl)cc(Cl)c2)c2ccc(C3CCCCC3)cc2)cc1 [Example 27, (R)-3-{4-[1-(4-Cyclohexylphenyl)-3-(3,5-dichlorophenyl)ureidomethyl]benzoylamino}-2-hydroxypropionic Acid]"
623 nM,24 nM,"CSc1cccc(NC(=O)N(Cc2ccc(C(=O)NC[C@@H](O)C(=O)O)cc2)c2ccc(C3CCCCC3)cc2)c1 [Example 29, (R)-3-{4-[1-(4-Cyclohexylphenyl)-3-(3-methylsulfanylphenyl)ureidomethyl]benzoylamino}-2-hydroxypropionic Acid]"
217 nM,13 nM,"O=C(NC[C@@H](O)C(=O)O)c1ccc(CN(C(=O)Nc2ccc3c(c2)C(F)(F)OC(F)(F)O3)c2ccc(C3=CCCCC3)cc2)cc1 [Example 30, (R)-3-{4-[1-(4-Cyclohex-1-enylphenyl)-3-(2,2,4,4-tetrafluoro-4H-benzo[1,3]dioxin-6-yl)ureido-methyl]benzoylamino}-2-hydroxypropionic Acid]"
≥ 3000 nM,917 nM,"CO[C@H](CNC(=O)c1ccc(CN(C(=O)Nc2cc(Cl)cc(Cl)c2)c2ccc(C3=CCCCC3)cc2)cc1)C(=O)O [Example 31, 3-{4-[1-(4-Cyclohex-1-enylphenyl)-3-(3,5-dichlorophenyl)ureidomethyl]benzoylamino}-2(R)-methoxypropionic Acid]"
432 nM,40 nM,"C[C@H](NC(=O)N(Cc1ccc(C(=O)NC[C@@H](O)C(=O)O)cc1)c1ccc(C2CCCCC2)cc1)c1ccc(Cl)cc1 [Example 35, 3-{4-[3-[1(S)-(4-Chlorophenyl)ethyl]-1-(4-cyclohexylphenyl)ureidomethyl]benzoylamino}-2(R)-hydroxypropionic Acid]"
284 nM,14 nM,"O=C(NC[C@@H](O)C(=O)O)c1ccc(CN(C(=O)NCc2ccccc2-c2ccccc2)c2ccc(C3CCCCC3)cc2)cc1 [Example 36, 3-{4-[3-Biphenyl-2-ylmethyl-1-(4-cyclohexylphenyl)ureidomethyl]benzoylamino}-2(R)-hydroxypropionic acid]"
221 nM,33 nM,"CC(C)(C)c1cccc(NC(=O)N(Cc2ccc(C(=O)NC[C@@H](O)C(=O)O)cc2)c2ccc(C3CCCCC3)cc2)c1 [Example 38, (R)-3-{4-[3-(3-tert-Butylphenyl)-1-(4-cyclohexylphenyl)ureidomethyl]benzoylamino)-2-hydroxypropionic Acid]"
357 nM,18 nM,"O=C(NC[C@@H](O)C(=O)O)c1ccc(CN(C(=O)Nc2ccc(OC(F)(F)F)c(CO)c2)c2ccc(C3CCCCC3)cc2)cc1 [Example 39, (R)-3-{4-[1-(4-Cyclohexylphenyl)-3-(3-hydroxymethyl-4-trifluoromethoxyphenyl)ureidomethyl]-benzoylamino}-2-hydroxypropionic Acid]"
800 nM,107 nM,"CC(C)(C)c1ccc(N(Cc2ccc(C(=O)NC[C@@H](O)C(=O)O)cc2)C(=O)Nc2ccc(Cl)c(Cl)c2)cc1 [Example 40, (R)-3-{4-[1-(4-tert-butylphenyl)-3-(3,4-dichlorophenyl)ureidomethyl]benzoylamino}-2-hydroxypropionic acid]"
1590 nM,133 nM,"CC(C)(C)C1CCC(N(Cc2ccc(C(=O)NC[C@@H](O)C(=O)O)cc2)C(=O)Nc2ccc(Cl)c(Cl)c2)CC1 (stereo partly drawn) [Example 41, (R)-3-{4-[1-(4-tert-Butylcyclohexyl)-3-(3,4-dichlorophenyl)ureidomethyl]benzoylamino}-2-hydroxypropionic acid]"

Structure (SMILES),IC50 (human GIP receptor),IC50 (human glucagon receptor)
"N#Cc1ccc(NC(=O)N(Cc2ccc(C(=O)NC[C@@H](O)C(=O)O)cc2)c2ccc(C3CCCCC3)cc2)cc1C(F)(F)F [Example 37, (R)-3-{4-[3-(4-Cyano-3-trifluoromethylphenyl)-1-(4-cyclohexylphenyl)ureidomethyl]benzoyl-amino}-2-hydroxypropionic Acid]",520 nM,19 nM
